Values of other authors, collected in US20240115713A1, “POLYETHYLENE GLYCOL CONJUGATE DRUG, AND PREPARATION METHOD THEREFOR AND USE THEREOF” (CHONGQING UPGRA BIOTECHNOLOGY CO., LTD., priority 2020, published 2024).
pKd: −log10 of the molar value.

Target: FA receptors
Conditions: read-out: Kd, binding affinity to the FA receptors

## Nc1nc2ncc(CNc3ccc(C(=O)N[C@@H](CCC(=O)O)C(=O)O)cc3)nc2c(=O)[nH]1 [FA, folic acid]
  pKd: ~10.00
